In ChEMBL document CHEMBL1201862, “PubChem BioAssay data set” (2004):
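Test compounds were applied to cells in 96-well plates for 48 hours at 5 doses. Here, GI50 denotes the concentration required for 50% inhibition of growth.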 The source made the active and inactive calls. Rule as the data show it: active = GI50 up to about 1.1 µM and inactive = higher.

Legend:
Test in all cases: growth of human tumour cells (NCI), 48 h
KM-20L2 = system: KM-20L2
DMS-114 = system: DMS-114
DLD-1 = system: DLD-1
DMS-273 = system: DMS-273
SNB-78 = system: SNB-78
XF498 = system: XF498
HOP-18 = system: HOP-18

Measured: GI50

O=C(NC(Cc1ccc(Br)cc1)C(=O)O)c1ccc(I)cc1 (stereo not drawn)
inactive: KM-20L2 > 100 µM | DMS-114 70.5 µM | DLD-1 > 100 µM | DMS-273 > 100 µM | SNB-78 > 100 µM | XF498 > 100 µM | HOP-18 > 100 µM

O=S(=O)(O)c1cc(S(=O)(=O)O)c2cc(/N=N/c3ccc(/N=N/c4ccc(/C=C/c5ccc(/N=[N+](/[O-])c6ccc(/C=C/c7ccc(/N=N/c8ccc(/N=N/c9ccc%10cc(S(=O)(=O)O)cc(S(=O)(=O)O)c%10c9)cc8)cc7S(=O)(=O)O)c(S(=O)(=O)O)c6)cc5S(=O)(=O)O)c(S(=O)(=O)O)c4)cc3)ccc2c1
inactive: KM-20L2 58.9 µM | DMS-114 > 57.4 µM | DLD-1 > 81.3 µM | DMS-273 > 55.6 µM | SNB-78 53.5 µM | XF498 45.2 µM
